Reference: patent US11827663B2, “Use of UAP inhibitors to inhibit flux through the hexosamine biosynthetic pathway” (The Johns Hopkins University, priority 2014, dated 2023)
Like-named read-outs stand apart in the source and are kept apart here.

Experiments:
Type in all cases: cell-based
[1] = system: PANC-1 cells; assay: Cell count / cell proliferation assay in PANC-1 cells; details: Homo sapiens
Protocol: FIGS. 5A and 5B show the results of cell toxicity experiments that were conducted on SW1990 and PANC-1 cells with the analogs indicated. Cells were counted after incubation with each analog for 48 hours. Cell counts were then normalized to controls, data was log transformed, and IC50 values were calculated. […]
(§1) Cells were incubated at a range of concentrations of the UAP inhibitors (typically at 0, 10, 25, 50, 100, and 150 μM) and the number of cells were quantified, typically by automated counting (e.g., with a Coulter Counter Z2 instrument) after 1, 2, 3, or 5 days of exposure.

[2] = system: primary glioblastoma cell line 612; assay: Cell count of primary glioblastoma line 612
Protocol: FIG. 7A depicts the results of primary glioblastoma lines 612 and GS1049 after incubation for 48 h with Ac4Glc2Bz followed by cell counting and normalization to untreated controls. The data is log transformed to easily determine IC50 values. FIG. 7B and FIG. 7C depict the measurement of proliferation of the primary glioblastoma lines after 48 h incubation with Ac4Glc2Bz using a MTT assay.
Furthermore, cell morphologies were grossly altered as concentrations of Ac4Glc2Bz were increased, which likely indicated severe metabolic stress, induction of apoptosis, and possibly altered adhesion.
as §1

[3] = system: primary human adipose stem cells (hASCs); assay: Cell count assay in control cells (human ASCs)
Excerpt: FIG. 4A and FIG. 4B depict histogram results of cell count assays after two days of exposure to each analog in cancer cell lines (SW1990 and PANC-1) and in control cells (human ASCs). […] In all cases, IC50 values were greater than 300 which is the highest concentration tested, for the ACSs, while the Ac4Glc2Bz analogs and Ac4Gal2Bz analogs were effective to reduce cell numbers in both cancer cell lines.

[4] = system: YAP/TAZ; assay: Western blot of YAP/TAZ
Protocol: FIGS. 10A and 10B show the western blot results from primary glioblastoma cell lines 612 (FIG. 10A) (these cells were a kind gift of Dr. Quinones-Hinojosa (School of Medicine, Johns Hopkins University), who obtained the cells from cancer patients) and GS1049 (FIG. 10B) that were incubated for 48 h with Ac4Glc2Bz at the indicated concentrations. Each cell line was probed for the proteins Yes Associated Protein (YAP), transcriptional coactivator with PDZ-binding motif (TAZ), phosphorylated Yes Associated Protein (p-YAP), and Glyceraldehyde 3-phosphate dehydrogenase (GAPDH control). […] YAP/TAZ are two key mediators that act to […] the Hippo pathway, which helps to promote oncogenesis, metastasis, and cancer cell survival in circulation. Until now, there were no known small molecule pharmacological agents capable of decreasing YAP/TAZ expression. These studies helped illustrate the extraordinarily powerful potential of UAP1/2 inhibitors as truly disease modifying candidates, especially in cancer.
In addition, in FIG. 22B, YAP western blot results from Ac4Glc2Bz cells were obtained where shRNA knockdown of UAP1 was performed using lentiviral methods in PANC-1 cells (n=3). Similar to above, UAP1 in PANC-1 cells was knocked down using lentiviral vectors followed by 1 week selection using puromycin. […]

[5] = system: microRNA; assay: qRT-PCR analysis of microRNA expression; details: SW1990 and 612 cells, 48 h
Protocol: FIGS. 20A-20C show qRT-PCR analysis of microRNA expression following treatment with different concentrations of Ac4Glc2Bz, for SW1990 cells of […] (FIG. 20A); for 612 cells of 191b-5p (FIG. 20B); and for SW1990 cells of 181p-5p (FIG. 20C).
The microRNAs analyzed were chosen because they regulated different aspects of cancer cell glycosylation. 3×10^5 cells per well in a 6-well plate were seeded along with the concentrations of Ac4Glc2Bz indicated. Glioblastoma cells were placed on 6-well plates precoated with laminin (1 ug/cm^2). After 48 h, miRNA was extracted using a miRNeasy kit (Qiagen), followed by cDNA synthesis and qrt-PCR using miRCURY LNA™ Universal RT microRNA PCR Starter Kit (Exiqon).

CC(=O)OCC1OC(OC(C)=O)[C@@H](NC(=O)c2ccccc2)[C@@H](OC(C)=O)[C@@H]1OC(C)=O (stereo partly shown) [Ac4Glc2Bz]
IC50 ([1]; PANC-1, 48 h, cell count after two days of incubation, FIG. 3, read-out: IC50 of reduction of cell numbers, PANC-1): ~50 µM | IC50 ([1]; PANC-1, FIG. 5B, read-out: IC50 of PANC-1 cell proliferation): ~45 µM | IC50 ([1]; PANC-1, cells counted after 48 hours incubation, normalized to controls, read-out: Estimated IC50 values, PANC-1): 45.5 ± 1.2 µM | cell densities under a microscope ([2]; 612 cells treated for 48 hours, FIG. 11): striking reduction in cell densities in a dose dependent manner | IC50 ([2]; 48 h incubation, cell counting normalized to untreated controls, read-out: Estimated IC50 values, 612): 36.2 ± 1.1 µM | IC50 ([3]; Homo sapiens, 48 h, two days of exposure, 300 is the highest concentration tested): > 300 µM | cytotoxicity / inhibition of normal ASCs ([3]; normal cells): minimally inhibits | protein expression of YAP/GAPDH ([4]; as described in Example 5): reduce protein expression of YAP/GAPDH in a dose-dependent manner | protein expression of YAP/TAZ ([4]; primary glioblastoma cell lines 612 and GS1049, 48 h): virtually abolished | microRNA expression [5]: could be modulated
